Experimental data as given in US4102994A, “Aliphatic amido-quaternary ammonium anti-microbial compounds” (Colgate-Palmolive Company, priority 1977, dated 1978).
Read-outs that look alike come from different tables or passages of the source.

Legend:
A. niger = assay: Test tube serial dilution test (minimal inhibitory concentration); assay type: cell-based; conditions: Aspergillus niger, broth serial dilution, read-out: Minimum Inhibitory Concentration
Method: (§1) The anti-microbial nature of the instant novel compounds was shown by a standard test tube serial dilution test in which an appropriate number of test tubes of broth containing decreasing concentrations of the test agent was innoculated with the test organism. After a suitable period of incubation, the tubes were examined for the presence or absence of growth. The activity of the test agent was the lowest concentration which inhibited the growth of the organism and is expressed as the minimal inhibitory concentration in ppm. As shown in the following table of antimicrobial data, a definite break occurs between compounds wherein R^4 contains 8 carbons and 10 carbons.

C. albicans = assay: as above; assay type: cell-based; conditions: Candida albicans
Method: as §1

E. coli = assay: as above; assay type: cell-based; conditions: Escherichia coli
Method: as §1

P. aeruginosa = assay: as above; assay type: cell-based; conditions: Pseudomonas aeruginosa, broth serial dilution, read-out: Minimum Inhibitory Concentration
Method: as §1

S. aureus = assay: as above; assay type: cell-based; conditions: Staphylococcus aureus
Method: as §1

Str. mutans = assay: as above; assay type: cell-based; conditions: Streptococcus mutans, broth serial dilution, read-out: Minimum Inhibitory Concentration
Method: as §1

Str. sanguis = assay: as above; assay type: cell-based; conditions: Streptococcus, broth serial dilution, read-out: Minimum Inhibitory Concentration
Method: as §1

A. naeslundii = assay: as above; assay type: cell-based, Actinomycetes naeslundii; conditions: Actinomyces naeslundii, broth serial dilution, read-out: Minimum Inhibitory Concentration
Method: as §1

T. mentagrophytes = assay: as above; assay type: cell-based, Trichophyton mentogrophytes; conditions: Trichophyton mentagrophytes
Method: as §1

Str. mitis = assay: as above; assay type: cell-based; conditions: Streptococcus mitis
Method: as §1

dental calculus = assay: Dental calculus inhibition in rats on Zipkin-McClure calculus producing diet, Baer's method; assay type: in vivo, littermated albino rats; conditions: .1% test solution, teeth swabbed thirty seconds each day for six weeks, vs water control, 99% significant
Excerpt: The quaternary ammonium amides of adamantanecarboxylic acid are particularly effective in inhibiting the development of dental calculus as shown by the results of tests on littermated albino rats, in groups of 15 males and 15 females who were fed a Zipkin-McClure calculus producing diet. For six weeks the teeth of each animal were swabbed for thirty seconds each day with a test solution or water for the control group. The animals were then sacrificed, defleshed and scored by Baer's method for calculus. The results were analyzed by Student's "t" test and in the results quoted were 99% significant.

[1] = C. albicans, broth serial dilution, read-out: Minimum Inhibitory Concentration
[2] = E. coli, broth serial dilution, read-out: Minimum Inhibitory Concentration
[3] = S. aureus, broth serial dilution, read-out: Minimum Inhibitory Concentration
[4] = T. mentagrophytes, broth serial dilution, read-out: Minimum Inhibitory Concentration
[5] = Str. mitis, broth serial dilution, read-out: Minimum Inhibitory Concentration
[6] = Table III, no quantity or unit printed in the table, minimal inhibitory concentration in ppm, read-out: antimicrobial results, C.albicans (Table III)
[7] = Table III, no quantity or unit printed in the table, minimal inhibitory concentration in ppm, read-out: antimicrobial results, E.coli (Table III)
[8] = read-out: antimicrobial results, S.aureus (Table III)
[9] = Table III, no quantity or unit printed in the table, minimal inhibitory concentration in ppm, read-out: antimicrobial results, S.mitis (Table III)
[10] = Table III, no quantity or unit printed in the table, minimal inhibitory concentration in ppm, read-out: antimicrobial results, T.mentagrophytes (Table III)

SMILES | MIC (A. niger) [µg/mL] | MIC (C. albicans; [1]) [µg/mL] | MIC (E. coli; [2]) [µg/mL] | MIC (P. aeruginosa) [µg/mL] | MIC (S. aureus; [3]) [µg/mL] | MIC (Str. mutans) [µg/mL] | MIC (Str. sanguis) [µg/mL] | MIC (A. naeslundii) [µg/mL] | MIC (T. mentagrophytes; [4]) [µg/mL] | MIC (Str. mitis; [5]) [µg/mL] | Calculus Reduction, Females (dental calculus; females) [%] | Calculus Reduction, Males (dental calculus; males) [%] | MIC (C. albicans; [6]) [µg/mL] | MIC (E. coli; [7]) [µg/mL] | MIC (S. aureus; [8]) [µg/mL] | MIC (Str. mitis; [9]) [µg/mL] | MIC (T. mentagrophytes; [10]) [µg/mL]
CCCCCCCCCCCCCC[N+](C)(C)CCCNC(=O)[C@H]1CC[C@@H]2CCC[C@@H]21 (relative stereo) [Comp.14, 3-(exo,cis-Bicyclooctane-2-carboxamido)propyltetradecyl dimethyl ammonium bromide] | 25 | 3.12 | 50 | 50 | 0.78 | < 0.05 | 6.25 | < 0.05 | 3.12 |  |  |  |  |  |  |  | 
CCCCCCCCCCCC[N+](C)(C)CCCNC(=O)[C@H]1CC[C@@H]2CCC[C@@H]21 (relative stereo) [Comp.15] | 25 | 3.12 | 25 | 25 | 1.56 | 0.1 | 3.12 | 0.19 | 6.25 |  |  |  |  |  |  |  | 
CCCCCCCCCC[N+](C)(C)CCCNC(=O)CCCCCCC.[I-] [Comp.3, 3-Octaneamidopropyldimethyldecyl ammonium iodide] | 25 | 6.25 | 50 | 25 | 12.5 | 0.78 | 6.25 | 12.5 | 12.5 |  |  |  |  |  |  |  | 
CCCCCCCCCCCC[N+](C)(C)CCCNC(=O)C12CC3CC(CC(C3)C1)C2 [Comp.9, 3-(1'-adamantanecarboxamido)propyldimethyldodecyl ammonium bromide] | 25 | 6.25 | 50 |  | 0.78 |  |  |  | 12.5 | 0.39 |  |  |  |  |  |  | 
CCCCCCCCCCCCCC[N+](C)(C)CCCNC(=O)C12CC3CC(CC(C3)C1)C2 [Comp.10, 3-(1'-adamantanecarboxamido)propyldimethyltetradecyl ammonium bromide] | 50 | 6.25 | 25 |  | 0.39 |  |  |  | 25 | 0.39 | 6.27 | 43.43 |  |  |  |  | 
CCCCCCCCCCCCCC[N+](C)(C)CCCNC(=O)C1CC2CCC1C2 (centres unmarked) [Comp.16, 3-(2'-norbornanecarboxamido)propyltetradecyldimethyl ammonium bromide] | 25 | 3.12 | 50 | 50 | 1.56 | 0.1 | 1.56 | 0.1 | 6.25 |  |  |  |  |  |  |  | 
CCCCCCCCCCCCCC[N+](C)(C)CCCNC(=O)C(CC)CCCC (centres unmarked) [R *C7 (branch), R^4 C14, X Cl] |  |  |  |  |  |  |  |  |  |  |  |  | 3.12 | 50 | 0.78 | 1.56 | 6.25
CCCCCCCCCCCC[N+](C)(C)CCCNC(=O)C(CC)CCCC (centres unmarked) [R *C7 branch, R^4 C12, X I] |  |  |  |  |  |  |  |  |  |  |  |  | 3.12 | 50 | 1.56 | 3.12 | 12.5
CCCCCCCCCCCCCC[N+](C)(C)CCCNC(=O)CCCCCCC.[Cl-] [R C7, R^4 C14, X Cl, 3-Octaneamidopropyldimethyltetradecyl ammonium chloride] |  |  |  |  |  |  |  |  |  |  |  |  | 3.12 | 50 | 0.78 | 1.56 | 3.12
CCCCCCCCCCCC[N+](C)(C)CCCNC(=O)CCCCCCCC [R C8, R^4 C12, X I] |  |  |  |  |  |  |  |  |  |  |  |  | 1.56 | 12.5 | 0.78 | 1.56 | 12.5
CCCCCCCCCCCCCC[N+](C)(C)CCCNC(=O)CCCCCCCC.[Cl-] [R C8, R^4 C14, X Cl, 3-Nonaneamidopropyldimethyltetradecyl ammonium chloride] |  |  |  |  |  |  |  |  |  |  |  |  | 1.56 | 100 | 1.56 | 0.78 | 3.12
CCCCCCCCCCCCCC[N+](C)(C)CCCNC(=O)CCCCCCCCC.[Cl-] [R C9, R^4 C14, X Cl, 3-Decaneamidopropyldimethyltetradecyl ammonium chloride] |  |  |  |  |  |  |  |  |  |  |  |  | 3.12 | 100 | 3.12 | 6.25 | 6.25
CCCCCCCCCCCC(=O)NCCC[N+](C)(C)C [R C11, R^4 C1, X I, reference compound] |  |  |  |  |  |  |  |  |  |  |  |  | 50 | 50 | 50 | 50 | 50
CCCCCCCCCCCCCC[N+](C)(C)CCCNC(=O)CCCCCCCCCCC.[Cl-] [R C11, R^4 C14, X Cl, 3-Dodecaneamidopropyldimethyltetradecyl ammonium chloride] |  |  |  |  |  |  |  |  |  |  |  |  | 25 | 100 | 6.25 | 12.5 | 25
CCCC[N+](CC)(CC)CCNC(=O)C12CC3CC(CC(C3)C1)C2 [R^4 =C4 H9, reference compound] | 100 | 100 |  |  | 100 | 100 | 50 | 100 | 50 |  |  |  |  |  |  |  | 
CCCCCC[N+](CC)(CC)CCNC(=O)C12CC3CC(CC(C3)C1)C2 [R^4 =C6 H13, reference compound] | 100 | 100 |  |  | 100 | 100 | 50 | 50 | 50 |  |  |  |  |  |  |  | 
CCCCCCCC[N+](CC)(CC)CCNC(=O)C12CC3CC(CC(C3)C1)C2 [R^4 =C8 H17, reference compound] | 100 | 50 |  |  | 25 | 25 | 50 | 12.5 | 50 |  |  |  |  |  |  |  | 
CCCCCCCCCC[N+](CC)(CC)CCNC(=O)C12CC3CC(CC(C3)C1)C2 [R^4 =C10 H21] | 50 | 6.25 |  |  | 3.12 | 6.25 | 6.25 | 1.56 | 50 |  |  |  |  |  |  |  | 
CCCCCCCCCCCC[N+](CC)(CC)CCNC(=O)C12CC3CC(CC(C3)C1)C2 [R^4 =C12 H25] | 12.5 | 1.56 |  |  | 1.56 | 0.78 | 3.12 | 0.39 | 3.12 |  |  |  |  |  |  |  | 
